Assay results from patent US7897602B2, “Indolinone compounds as kinase inhibitors” (Development Center for Biotechnology, priority 2009, dated 2011).

Tests used:
Format in all cases: biochemical
VEGFR2 kinase = target: T1, VEGFR2 kinase (Homo sapiens, UniProt P35968); assay: VEGFR2 kinase assay (33P incorporation into Poly(Glu-Tyr)); details: 500 nM test compound; read-out: Inhibition at 500 nM (%) VEGFr-2
T1 construct: recombinant N-terminal 6×His-tagged VEGFR2 kinase domain construct expressed by baculovirus; 6xHis (N); made in house
Description: Inhibition of VEGFR2 kinase activity by compounds disclosed herein was quantified by measuring the amount of [^33P] incorporated into the substrate in the presence of a test compound. Specifically, a reaction mixture with a final volume of 25 μL and containing 6.25 ng of VEGFR2 kinase (obtained by purifying recombinant N-terminal 6×His-tagged VEGFR2 kinase domain construct expressed by baculovirus), 5 μg of substrate (Poly (Glu-Tyr, 4:1, Sigma)), kinase reaction buffer (20 mM MOPS pH 7.0, 1 mM EDTA, 5% glycerol, 0.01% Brij-35, 0.1% β-mercaptoethanol, 1 mg/mL BSA, 100 μM ATP, 0.1 μCi per well [^33P]-γ-ATP (2,500-3,000 Ci/mmol), and 500 nM test compound (final concentration of DMSO was 4%) or 4% DMSO alone (as the control sample), was incubated at 30° C. for 30 minutes. The reaction was then stopped by adding 5 μL of 3% phosphoric acid solution. The resultant solution was transferred to and harvested by a filter plate (UniFilter-96 GF/B, PerkinElmer). The filter plate was then washed 20 times with d.d. H2O for 5 min followed by the addition of 30 μL of MicroScint™-20 Cocktail (PerkinElmer). After the plate was sealed, the retained radioactivity on the filter was counted using a TopCount scintillation detector (PerkinElmer). The percentage of inhibition rate of the test compound was calculated by dividing the retained radioactivity of the test sample with the retained radioactivity of the control sample and shown in Table 3.

PDGFR-β kinase = target: T2, PDGFR-β kinase (Homo sapiens, UniProt P09619); assay: PDGFR-β kinase assay (33P incorporation into Poly(Glu-Tyr)); details: 500 nM test compound
T2 construct: recombinant N-terminal 6×His-tagged PDGFR-β kinase domain construct expressed by baculovirus; 6xHis (N); made in house
Description: Inhibition of PDGFR-β kinase activity by compounds disclosed herein was quantified by measuring the amount of [^33P] incorporated into the substrate in the presence of a test compound. Briefly, a reaction mixture of 25 μL final volume containing 55 ng of PDGFR-β kinase (obtained by purifying recombinant N-terminal 6×His-tagged PDGFR-β kinase domain construct expressed by baculovirus), 2.5 μg of the substrate (Poly (Glu-Tyr, 4:1, Sigma)), kinase reaction buffer (20 mM MOPS pH 7.0, 1 mM EDTA, 5% glycerol, 0.01% Brij-35, 0.1% β-mercaptoethanol, 1 mg/mL BSA, 2 mM MnCl2, 30 μM ATP, 0.1 μCi per well [^33P]-γ-ATP (2,500-3,000 Ci/mmol)), and a test compound (500 nM, diluted with 4% DMSO) or DMSO (as the control) was incubated at 30° C. for 30 minutes. The reaction was stopped by adding 5 μL of 3% phosphoric acid solution. The resultant reaction solution was then harvested onto a filter plate (UniFilter-96 GF/B, PerkinElmer), washed 20 times for 5 min with d.d. H2O, and followed by the addition of 30 μL of MicroScint™-20 Cocktail (PerkinElmer). The plate was then sealed and counted using a TopCount scintillation detector (PerkinElmer). The percentage of inhibition rate of the test compound was calculated by dividing the retained radioactivity of the test sample with the retained radioactivity of the control sample and shown in Table 3.

c-Met kinase = target: T3, c-Met kinase (Homo sapiens, UniProt P08581); assay: c-Met kinase assay (33P incorporation into Poly(Glu-Tyr)); details: 500 nM test compound
T3 construct: recombinant N-terminal 6×His-tagged c-Met kinase domain construct expressed from baculovirus; 6xHis (N); made in house
Summary of the method: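 Recombinant N-terminal 6×His-tagged c-Met kinase domain (baculovirus-expressed, 5 ng) acted on Poly(Glu-Tyr) 4:1 with 100 μM ATP plus [33P]-γ-ATP in MOPS pH 7.0 buffer, 30 min at 30° C. Compound was at 500 nM. Filter-retained radioactivity was compared with the DMSO control to give percent inhibition.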

T1 sequence (P35968 834-1162 limits assumed): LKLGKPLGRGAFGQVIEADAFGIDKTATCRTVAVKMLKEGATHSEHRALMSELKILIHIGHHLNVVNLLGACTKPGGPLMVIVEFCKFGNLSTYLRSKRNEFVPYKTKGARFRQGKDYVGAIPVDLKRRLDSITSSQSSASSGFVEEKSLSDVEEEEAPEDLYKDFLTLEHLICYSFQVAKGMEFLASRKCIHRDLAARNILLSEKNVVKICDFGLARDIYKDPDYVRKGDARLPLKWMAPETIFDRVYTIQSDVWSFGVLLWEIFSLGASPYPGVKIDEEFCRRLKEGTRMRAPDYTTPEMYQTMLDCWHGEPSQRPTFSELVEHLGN
T3 sequence (P08581 1078-1345 limits assumed): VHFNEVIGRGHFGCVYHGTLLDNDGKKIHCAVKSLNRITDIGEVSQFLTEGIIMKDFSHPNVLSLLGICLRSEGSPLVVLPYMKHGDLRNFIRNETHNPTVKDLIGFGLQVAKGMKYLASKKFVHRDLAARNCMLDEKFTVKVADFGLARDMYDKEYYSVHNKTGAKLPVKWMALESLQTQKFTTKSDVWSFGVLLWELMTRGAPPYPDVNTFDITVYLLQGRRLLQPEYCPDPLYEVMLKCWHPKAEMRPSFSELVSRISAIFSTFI
T2 sequence (P09619 600-962 limits assumed): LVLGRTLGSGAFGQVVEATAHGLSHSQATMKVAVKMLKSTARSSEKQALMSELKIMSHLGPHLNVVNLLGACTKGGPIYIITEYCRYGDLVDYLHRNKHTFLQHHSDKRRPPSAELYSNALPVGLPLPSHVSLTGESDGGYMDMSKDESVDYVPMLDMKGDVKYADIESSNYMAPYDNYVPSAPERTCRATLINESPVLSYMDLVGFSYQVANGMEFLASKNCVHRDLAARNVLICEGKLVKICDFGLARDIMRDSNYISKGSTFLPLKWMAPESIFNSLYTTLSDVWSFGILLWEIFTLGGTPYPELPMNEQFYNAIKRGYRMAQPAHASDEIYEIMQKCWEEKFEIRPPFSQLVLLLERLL

Row | inhibition at 0.5 µM (VEGFR2 kinase) [%] | inhibition at 0.5 µM (PDGFR-β kinase) [%] | inhibition at 0.5 µM (c-Met kinase) [%] | Inhibition at 500 nM (%) c-Met (c-Met kinase; 0.5 µM) [%] | Structure (SMILES)
1 | 79.7 | 54 | 26 |  | CCOC(=O)CCc1c(/C=C2\C(=O)Nc3ccccc32)[nH]c2c1C(=O)CCC2 [DCB-70049, (Z)-3-((3-(3-ethoxy-3-oxopropyl)-4-oxo-4,5,6,7-tetrahydro-1H-indol-2-yl)methylene)indolin-2-one]
2 | 85 | 54.8 | 14.3 |  | O=C(O)CCc1c(/C=C2\C(=O)Nc3ccccc32)[nH]c2c1C(=O)CCC2 [DCB-70052, (Z)-3-((3-carboxyethyl-4-oxo-4,5,6,7-tetrahydro-1H-indol-2-yl)methylene)indolin-2-one]
3 | 85.2 | 82.3 |  | 17.4 | CCOC(=O)CCc1c(/C=C2\C(=O)Nc3ccc(F)cc32)[nH]c2c1C(=O)CCC2 [DCB-70053, (Z)-5-fluoro-3-((3-(3-ethoxy-3-oxopropyl)-4-oxo-4,5,6,7-tetrahydro-1H-indol-2-yl)methylene)indolin-2-one]
4 | 91.2 | 83.5 | 21.7 |  | O=C(O)CCc1c(/C=C2\C(=O)Nc3ccc(F)cc32)[nH]c2c1C(=O)CCC2 [DCB-70055, (Z)-5-fluoro-3-((3-carboxyethyl-4-oxo-4,5,6,7-tetrahydro-1H-indol-2-yl)methylene)indolin-2-one]
5 | 89.6 | 84.1 | 30.9 |  | CCOC(=O)CCc1c(/C=C2\C(=O)Nc3ccc(Br)cc32)[nH]c2c1C(=O)CCC2 [DCB-70056, (Z)-5-bromo-3-((3-(3-ethoxy-3-oxopropyl)-4-oxo-4,5,6,7-tetrahydro-1H-indol-2-yl)methylene)indolin-2-one]
6 | 94.9 | 89.3 | 19.3 |  | O=C(O)CCc1c(/C=C2\C(=O)Nc3ccc(Br)cc32)[nH]c2c1C(=O)CCC2 [DCB-70057, (Z)-5-bromo-3-((3-carboxyethyl-4-oxo-4,5,6,7-tetrahydro-1H-indol-2-yl)methylene)indolin-2-one]
7 | 46.3 | 30.5 | 9.7 |  | CCOC(=O)CCc1c(/C=C2\C(=O)Nc3ccc(-c4ccc(O)c(OC)c4)cc32)[nH]c2c1C(=O)CCC2 [DCB-70058, (Z)-5-(4-hydroxyl-3-methoxyphenyl)-3-((3-(3-ethoxy-3-oxopropyl)-4-oxo-4,5,6,7-tetrahydro-1H-indol-2-yl)methylene)indolin-2-one]
8 | 70.9 | 38.3 | 16.3 |  | COc1cc(-c2ccc3c(c2)/C(=C/c2[nH]c4c(c2CCC(=O)O)C(=O)CCC4)C(=O)N3)ccc1O [DCB-70059, (Z)-5-(4-hydroxyl-3-methoxyphenyl)-3-((3-carboxyethyl-4-oxo-4,5,6,7-tetrahydro-1H-indol-2-yl)methylene)indolin-2-one]
9 | 60.2 | 67.5 | 34.1 |  | CCOC(=O)CCc1c(/C=C2\C(=O)Nc3ccc([N+](=O)[O-])cc32)[nH]c2c1C(=O)CCC2 [DCB-70062, (Z)-5-nitro-3-((3-(3-ethoxy-3-oxopropyl)-4-oxo-4,5,6,7-tetrahydro-1H-indol-2-yl)methylene)indolin-2-one]
10 | 82.7 | 79.7 | 19.9 |  | O=C(O)CCc1c(/C=C2\C(=O)Nc3ccc([N+](=O)[O-])cc32)[nH]c2c1C(=O)CCC2 [DCB-70063, (Z)-5-nitro-3-((3-carboxyethyl-4-oxo-4,5,6,7-tetrahydro-1H-indol-2-yl)methylene)indolin-2-one]
11 | 39 | 56.7 | 48.1 |  | CCOC(=O)CCc1c(/C=C2\C(=O)Nc3ccc(S(=O)(=O)NC)cc32)[nH]c2c1C(=O)CCC2 [DCB-70064, (Z)-5-(N-methylsulfamoyl)-3-((3-(3-ethoxy-3-oxopropyl)-4-oxo-4,5,6,7-tetrahydro-1H-indol-2-yl)methylene)indolin-2-one]
12 | 47.9 | 17.3 | 29.1 |  | CNS(=O)(=O)c1ccc2c(c1)/C(=C/c1[nH]c3c(c1CCC(=O)O)C(=O)CCC3)C(=O)N2 [DCB-70065, (Z)-5-(N-methylsulfamoyl)-3-((3-carboxyethyl-4-oxo-4,5,6,7-tetrahydro-1H-indol-2-yl)methylene)indolin-2-one]
13 | 94.3 | 85.4 | 15.2 |  | CCOC(=O)CCc1c(/C=C2\C(=O)Nc3cc(-c4ccc(O)cc4)ccc32)[nH]c2c1C(=O)CCC2 [DCB-70066, (Z)-6-(4-hydroxyphenyl)-3-((3-(3-ethoxy-3-oxopropyl)-4-oxo-4,5,6,7-tetrahydro-1H-indol-2-yl)methylene)indolin-2-one]
14 | 27.2 | 22 | 17 |  | CCOC(=O)CCc1c(/C=C2\C(=O)Nc3ccc(-c4ccc(OC)c(OC)c4)cc32)[nH]c2c1C(=O)CCC2 [DCB-70067, (Z)-5-(3,4-dimethoxyphenyl)-3-((3-(3-ethoxy-3-oxopropyl)-4-oxo-4,5,6,7-tetrahydro-1H-indol-2-yl)methylene)indolin-2-one]
15 | 48.4 | 20.6 | 18 |  | COc1ccc(-c2ccc3c(c2)/C(=C/c2[nH]c4c(c2CCC(=O)O)C(=O)CCC4)C(=O)N3)cc1OC [DCB-70068, (Z)-5-(3,4-dimethoxyphenyl)-3-((3-carboxyethyl-4-oxo-4,5,6,7-tetrahydro-1H-indol-2-yl)methylene)indolin-2-one]
16 | 11.4 | 6.8 | -38 |  | CCOC(=O)CCc1c(/C=C2\C(=O)Nc3ccc(-c4cc5ccccc5s4)cc32)[nH]c2c1C(=O)CCC2 [DCB-70069, (Z)-5-(benzo[b]thiophen-2-yl)-3-((3-(3-ethoxy-3-oxopropyl)-4-oxo-4,5,6,7-tetrahydro-1H-indol-2-yl)methylene)indolin-2-one]
17 | 45.5 | 18.7 | 19.7 |  | O=C(O)CCc1c(/C=C2\C(=O)Nc3ccc(-c4cc5ccccc5s4)cc32)[nH]c2c1C(=O)CCC2 [DCB-70070, (Z)-5-(benzo[b]thiophen-2-yl)-3-((3-carboxyethyl-4-oxo-4,5,6,7-tetrahydro-1H-indol-2-yl)methylene)indolin-2-one]
18 | 91.8 | 43.1 | 65.3 |  | O=C(O)CCc1c(/C=C2\C(=O)Nc3ccc(S(=O)(=O)Cc4ccccc4)cc32)[nH]c2c1C(=O)CCC2 [DCB-70071, (Z)-5-benzylsulfonyl-3-((3-carboxyethyl-4-oxo-4,5,6,7-tetrahydro-1H-indol-2-yl)methylene)indolin-2-one]
19 | 86 | 34.5 | 62.8 |  | O=C(O)CCc1c(/C=C2\C(=O)Nc3ccc(S(=O)(=O)Cc4ccc(F)cc4)cc32)[nH]c2c1C(=O)CCC2 [DCB-70072, (Z)-5-(4-fluorobenzylsulfonyl)-3-((3-carboxyethyl-4-oxo-4,5,6,7-tetrahydro-1H-indol-2-yl)methylene)indolin-2-one]
20 | 71.3 | 29.3 | 91.6 |  | O=C(O)CCc1c(/C=C2\C(=O)Nc3ccc(S(=O)(=O)Cc4c(Cl)cccc4Cl)cc32)[nH]c2c1C(=O)CCC2 [DCB-70073, (Z)-5-(2,6-dichlorobenzylsulfonyl)-3-((3-carboxyethyl-4-oxo-4,5,6,7-tetrahydro-1H-indol-2-yl)methylene)indolin-2-one]
